Results: US10377774B2 (JINAN UNIVERSITY, priority 2013, dated 2019)
Marks after values point to notes of the source that are not given here.

How the values were obtained:
[1] = test system: human liver cancer cell line HepG2; experiment: MTT cell growth inhibition, HepG2; type: cell-based; details: Homo sapiens; HepG2, MTT assay, 72 h; read-out: IC50, growth of tumor cell line
[2] = test system: human gastric carcinoma cell line NCI-N87; experiment: MTT cell growth inhibition, NCI-N87; type: cell-based; details: Homo sapiens; NCI-N87, MTT assay, 72 h; read-out: IC50, growth of tumor cell line
From the text: (§3) Experimental method: Cell lines (human non-small-cell lung cancer cell line A549, human colon cancer cell line LOVO, human nasopharyngeal carcinoma cell line CNE-2, human liver cancer cell line HepG2, human cervical carcinoma cell line Hela, human breast cancer cell lines MCF-7 and MDA-MB-231, human gastric carcinoma cell line NCI-N87, human prostatic cancer cell lines PC-3 and DU145, human leukemia cell line K562, human melanoma cell line A375, human neuroblastoma cell line SH-SY5H, human promyelocytic leukemia cell line HL-60, 5-FU-resistant human hepatocellular carcinoma cell line BEL-7402/5-Fu, doxorubicin-resistant hepatocellular carcinoma cell line HepG2/ADM, doxorubicin-resistant human breast cancer cell lines MCF-7/ADR) at logarithmic phase were resuspended in RPMI 1640 medium (containing 10% fetal bovine serum, 100 U/mL penicillin-streptomycin). Then, 100 μL of cells (cell concentration was 5×10^5/mL) were seeded into 96 wells plate. After 24 h incubation at 37° C. with 5% CO2, tested compounds were added (the control group without compound) for an additional 72 h incubation. After that, 30 μL of MTT [3-(4,5-Dimethylthiazol-2-yl)-2,5-diphenyltetrazolium bromide] solution (5 mg/mL) was added into each well and incubated for another 4 h at 37° C. and then the formazan crystals were solubilized with 100 μL DMSO. Finally, absorbance of each well was determined at 570 nm by a microplate reader (Thermo).
(§4) The concentration required to inhibit cell growth by 50% (IC50) was calculated from survival curves.

[3] = test system: human colon cancer cell line LOVO; experiment: MTT cell growth inhibition, LOVO; type: cell-based; details: Homo sapiens; LOVO (FAPα positive), MTT assay, 72 h; read-out: IC50, growth of tumor cell line
[4] = test system: human leukemia cell line K562; experiment: MTT cell growth inhibition, K562; type: cell-based; details: Homo sapiens; K562, MTT assay, 72 h; read-out: IC50, growth of tumor cell line
From the text: as §3, §4

[5] = test system: human prostatic cancer cell line PC-3; experiment: MTT cell growth inhibition, PC-3; type: cell-based; details: Homo sapiens; PC-3, MTT assay, 72 h; read-out: IC50, growth of tumor cell line
From the text: as §3, §4

[6] = test system: human breast cancer cell line MDA-MB-231; experiment: MTT cell growth inhibition, MDA-MB-231; type: cell-based; details: Homo sapiens; MDA-MB-231, MTT assay, 72 h; read-out: IC50, growth of tumor cell line
From the text: as §3, §4

[7] = test system: human breast cancer cell line MCF-7; experiment: MTT cell growth inhibition, MCF-7; type: cell-based; details: Homo sapiens, MCF7; MCF-7, MTT assay, 72 h; read-out: IC50, growth of tumor cell line
From the text: as §3, §4

[8] = test system: human nasopharyngeal carcinoma cell line CNE-2; experiment: MTT cell growth inhibition, CNE-2; type: cell-based; details: Homo sapiens; CNE-2, MTT assay, 72 h; read-out: IC50, growth of tumor cell line
[9] = test system: human neuroblastoma cell line SH-SY5H; experiment: MTT cell growth inhibition, SH-SY5H; type: cell-based; details: Homo sapiens, Neuroblastoma cell, MTT assay, 72 h, read-out: IC50, growth of tumor cell line
From the text: as §3, §4

[10] = test system: human promyelocytic leukemia cell line HL-60; experiment: MTT cell growth inhibition, HL-60; type: cell-based; details: Homo sapiens; HL-60, MTT assay, 72 h; read-out: IC50, growth of tumor cell line
From the text: as §3, §4

[11] = test system: 5-FU-resistant human hepatocellular carcinoma cell line BEL-7402/5-Fu; experiment: MTT cell growth inhibition, BEL-7402/5-Fu; type: cell-based; details: Homo sapiens, Bel7402/5-FU, MTT assay, 72 h, read-out: IC50, growth of tumor cell line
From the text: as §3, §4

[12] = test system: human melanoma cell line A375; experiment: MTT cell growth inhibition, A375; type: cell-based; details: Homo sapiens, A-375; A375, MTT assay, 72 h; read-out: IC50, growth of tumor cell line
From the text: as §3, §4

[13] = test system: human non-small-cell lung cancer cell line A549; experiment: MTT cell growth inhibition, A549; type: cell-based; details: Homo sapiens; A549, MTT assay, 72 h; read-out: IC50, growth of tumor cell line
From the text: as §3, §4

[14] = test system: human cervical carcinoma cell line Hela; experiment: MTT cell growth inhibition, Hela; type: cell-based; details: Homo sapiens, MTT assay, 72 h, read-out: IC50, growth of tumor cell line
[15] = test system: doxorubicin-resistant hepatocellular carcinoma cell line HepG2/ADM; experiment: MTT cell growth inhibition, HepG2/ADM; type: cell-based, human; details: Homo sapiens, MTT assay, 72 h, read-out: IC50, growth of tumor cell line
From the text: as §3, §4

[16] = test system: human prostatic cancer cell line DU145; experiment: MTT cell growth inhibition, DU-145; type: cell-based; details: Homo sapiens; DU-145, MTT assay, 72 h; read-out: IC50, growth of tumor cell line
From the text: as §3, §4

[17] = test system: doxorubicin-resistant human breast cancer cell lines MCF-7/ADR; experiment: MTT cell growth inhibition, MCF-7/ADR; type: cell-based; details: Homo sapiens, NCI/ADR-RES, MTT assay, 72 h, read-out: IC50, growth of tumor cell line
From the text: as §3, §4

[18] = test system: K562 xenografts; experiment: K562 xenografts in nude mice; type: in vivo; details: K562 xenograft nude mice; for Anti-tumor rate (%) / Body weight (g) Post-dose / Tumor weight: 1 mg/kg; for Body weight (g) Pre-dose: before dosing
Procedure: (§1) Experimental method: The MDA-MB-231 cells at logarithmic phase were digested and washed twice with PBS. Then, 100 μL cells (1×10^7) were inoculated subcutaneously on the backs of female BALB/nu/nu mice. After tumors grew to 70˜100 mm^3, the mice were divided randomly into saline group (control group), vinca alkaloids groups (VLB, CCRB, CCFN, CCXJ) and vinca alkaloid derivatives groups (JJ-CCJ, BX-CCJ, JJ-CCRB, BX-CCRB, JJ-CCFN, BX-CCFN, JJ-CCXJ and BX-CCXJ), with six mice per group. 1 mg/kg drugs were injected intraperitoneally every two days, meanwhile body weight and tumor sizes were measured. Experiment was ended after 8 times of drug administration, then tumor and organs were stripped. Tumor volumes were measured using the following formula: V=½(ab^2), whereas a refers to the longest diameter and b is the shortest diameter.
(§2) Tumor xenograft models of HepG2, LOVO, K562 and HL-60 cell lines were performed as the method described above.

[19] = test system: LOVO xenografts; experiment: LOVO xenografts in nude mice; type: in vivo; details: LOVO xenograft nude mice; for Anti-tumor rate (%) / Body weight (g) Post-dose / Tumor weight: 1 mg/kg; for Body weight (g) Pre-dose: before dosing
Procedure: as §1, §2

[20] = test system: HL-60 xenografts; experiment: HL-60 xenografts in nude mice; type: in vivo; details: HL-60 xenograft nude mice; for Anti-tumor rate (%) / Body weight (g) Post-dose / Tumor weight: 1 mg/kg; for Body weight (g) Pre-dose: before dosing
Procedure: as §1, §2

[21] = test system: MDA-MB-231 xenografts; experiment: MDA-MB-231 xenografts in nude mice; type: in vivo, BALB/nu/nu mice; details: MDA-MB-231 xenograft nude mice; for Anti-tumor rate (%) / Body weight (g) Post-dose / Tumor weight: 1 mg/kg i.p. every two days, 8 administrations; for Body weight (g) Pre-dose: before dosing
Procedure: as §1

[22] = test system: HepG2 xenografts; experiment: HepG2 xenografts in nude mice; type: in vivo; details: HepG2 xenograft nude mice; for Anti-tumor rate (%) / Body weight (g) Post-dose / Tumor weight: 1 mg/kg; for Body weight (g) Pre-dose: before dosing
Procedure: as §1, §2

[23] = MTT cytotoxicity on normal cells, LO2; details: human, LO2 cells (human normal liver cells)
[24] = MTT cytotoxicity on normal cells, HUVEC; details: human, HUVEC (human umbilical vein endothelial cells)

SMILES	IC50 [1]	IC50 [2]	IC50 [3]	IC50 [4]	IC50 [5]	IC50 [6]	IC50 [7]	IC50 [8]	IC50 [9]	IC50 [10]	IC50 [11]	IC50 [12]	IC50 [13]	IC50 [14]	IC50 [15]	IC50 [16]	IC50 [17]	Anti-tumor rate (%) [18]	Body weight (g) Post-dose [18]	Tumor weight [18]	other results
CC[C@]12C=CCN3CC[C@@]4(c5cc([C@@]6(C(=O)OC)C[C@@H]7C[C@@H](C(C)(F)F)CN(Cc8c6[nH]c6ccccc86)C7)c(OC)cc5N(C)[C@H]4[C@@](O)(C(=O)OC)[C@@H]1OC(C)=O)[C@@H]32 [Vinflunine, reference compound]	32.1 ± 2.17 nM	57.5 ± 3.95 nM	146 ± 7.21 nM	19.3 ± 2.48 nM	31.1 ± 5.34 nM	61.3 ± 7.44 nM	77 ± 2.74 nM	67.4 ± 3.42 nM	52.4 ± 6.81 nM	41.8 ± 6.85 nM	45.7 ± 3.98 nM	39.8 ± 5.29 nM	137 ± 4.1 nM	56.7 ± 4.47 nM	67.1 ± 4.39 nM	22.3 ± 1.67 nM	154 ± 3.95 nM	–	–	–	–
CCC1=C[C@@H]2CN(C1)Cc1c([nH]c3ccccc13)[C@@](C(=O)OC)(c1cc3c(cc1OC)N(C)[C@H]1[C@@](O)(C(=O)NN)[C@H](O)[C@]4(CC)C=CCN5CC[C@]31[C@@H]54)C2 [JJ-CCRB, hydrazinolyzed vinorelbine]	89.31 ± 0.71 nM	89 ± 3.34 nM	121 ± 10.3 nM	49.7 ± 3.39 nM	65.9 ± 3.05 nM	101 ± 7.65 nM	122 ± 5.75 nM	100 ± 5.9 nM	32.9 ± 3.27 nM	46.8 ± 5.41 nM	143 ± 8.57 nM	20.4 ± 2.85 nM	73.1 ± 2.36 nM	61.3 ± 3.12 nM	182 ± 4.38 nM	60.4 ± 7.01 nM	–	59.52** %	18.2 ± 0.5 g	0.68 ± 0.20 g	Body weight (g) Pre-dose [18]: 21.8 ± 1.4 g; Anti-tumor rate (%) [19]: 69.69** %; Body weight (g) Post-dose [19]: 16.4 ± 0.7 g; Tumor weight [19]: 0.87 ± 0.16 g; Body weight (g) Pre-dose [19]: 23.2 ± 2.1 g; Anti-tumor rate (%) [20]: 65.38** %; Body weight (g) Post-dose [20]: 17.1 ± 0.3 g; Tumor weight [20]: 0.72 ± 0.21 g; Body weight (g) Pre-dose [20]: 19.5 ± 1.3 g; Anti-tumor rate (%) [21]: 77.39** %; Body weight (g) Post-dose [21]: 16.7 ± 1.4 g; Tumor weight [21]: 0.59 ± 0.18 g; Body weight (g) Pre-dose [21]: 21.0 ± 2.7 g; Anti-tumor rate (%) [22]: 75.29** %; Body weight (g) Post-dose [22]: 17.0 ± 0.8 g; Tumor weight [22]: 0.63 ± 0.29 g; Body weight (g) Pre-dose [22]: 21.9 ± 1.6 g
CCC1=C[C@@H]2CN(C1)Cc1c([nH]c3ccccc13)[C@@](C(=O)OC)(c1cc3c(cc1OC)N(C)[C@H]1[C@@](O)(C(=O)OC)[C@H](OC(C)=O)[C@]4(CC)C=CCN5CC[C@]31[C@@H]54)C2 [Vinorelbine, reference compound]	8.34 ± 0.53 nM	35.8 ± 6.57 nM	7.86 ± 0.16 nM	12.2 ± 0.54 nM	23.7 ± 4.31 nM	39.7 ± 5.79 nM	49.5 ± 2.01 nM	9.03 ± 0.35 nM	4.78 ± 0.84 nM	8.68 ± 1.35 nM	36.1 ± 4.78 nM	5.64 ± 0.95 nM	14.5 ± 1.07 nM	11.4 ± 1.04 nM	24.4 ± 3.82 nM	19.9 ± 0.57 nM	–	–	–	–	IC50 at 72 h [23]: 0.97 ± 0.08 nM; IC50 at 72 h [24]: 1.13 ± 0.56 nM
CC[C@]1(O)C[C@@H]2CN(CCc3c([nH]c4ccccc34)[C@@](C(=O)OC)(c3cc4c(cc3OC)N[C@H]3[C@@](O)(C(=O)NN)[C@H](O)[C@]5(CC)C=CCN6CC[C@]43[C@@H]65)C2)C1 [JJ-CCXJ, hydrazinolyzed vincristine]	12.3 ± 1.96 nM	10.7 ± 1.78 nM	24.3 ± 1.09 nM	12.1 ± 1.67 nM	27.1 ± 2.18 nM	7.37 ± 1.18 nM	26.9 ± 4.38 nM	8.37 ± 2.7 nM	18.7 ± 2.54 nM	32.5 ± 3.51 nM	106 ± 5.87 nM	15.6 ± 2.38 nM	4.34 ± 0.42 nM	23.6 ± 2.97 nM	44.9 ± 3.67 nM	18.4 ± 3.67 nM	63.2 ± 7.74 nM	60.12** %	17.1 ± 0.3 g	0.67 ± 0.22 g	Body weight (g) Pre-dose [18]: 22.4 ± 1.7 g; Anti-tumor rate (%) [19]: 73.52** %; Body weight (g) Post-dose [19]: 17.5 ± 1.3 g; Tumor weight [19]: 0.76 ± 0.16 g; Body weight (g) Pre-dose [19]: 22.9 ± 2.3 g; Anti-tumor rate (%) [20]: 59.62** %; Body weight (g) Post-dose [20]: 16.3 ± 0.6 g; Tumor weight [20]: 0.84 ± 0.13 g; Body weight (g) Pre-dose [20]: 19.7 ± 1.5 g; Anti-tumor rate (%) [21]: 75.86** %; Body weight (g) Post-dose [21]: 17.3 ± 1.2 g; Tumor weight [21]: 0.63 ± 0.15 g; Body weight (g) Pre-dose [21]: 21.1 ± 2.5 g; Anti-tumor rate (%) [22]: 79.21** %; Body weight (g) Post-dose [22]: 17.8 ± 0.9 g; Tumor weight [22]: 0.53 ± 0.12 g; Body weight (g) Pre-dose [22]: 22.0 ± 2.1 g
CC[C@]12C=CCN3CC[C@@]4(c5cc([C@@]6(C(=O)OC)C[C@@H]7C[C@@H](C(C)(F)F)CN(Cc8c6[nH]c6ccccc86)C7)c(OC)cc5N(C)[C@H]4[C@@](O)(C(=O)NN)[C@@H]1O)[C@@H]32 [JJ-CCFN, hydrazinolyzed vinflunine]	103 ± 6.37 nM	133 ± 6.7 nM	313 ± 7.64 nM	55.9 ± 7.59 nM	98.3 ± 3.19 nM	333 ± 12.5 nM	304 ± 9.44 nM	198 ± 7.71 nM	159 ± 20.4 nM	198 ± 19.5 nM	166 ± 5.77 nM	132 ± 9.51 nM	206 ± 6.79 nM	132 ± 6.67 nM	277 ± 9.67 nM	90.8 ± 5.45 nM	713 ± 25.6 nM	57.74** %	17.4 ± 0.9 g	0.71 ± 0.21 g	Body weight (g) Pre-dose [18]: 21.5 ± 2.1 g; Anti-tumor rate (%) [19]: 76.31** %; Body weight (g) Post-dose [19]: 18.9 ± 2.1 g; Tumor weight [19]: 0.68 ± 0.13 g; Body weight (g) Pre-dose [19]: 22.7 ± 1.5 g; Anti-tumor rate (%) [20]: 60.10** %; Body weight (g) Post-dose [20]: 17.3 ± 0.1 g; Tumor weight [20]: 0.83 ± 0.13 g; Body weight (g) Pre-dose [20]: 19.2 ± 1.9 g; Anti-tumor rate (%) [21]: 75.10** %; Body weight (g) Post-dose [21]: 16.3 ± 0.7 g; Tumor weight [21]: 0.65 ± 0.13 g; Body weight (g) Pre-dose [21]: 19.7 ± 2.1 g; Anti-tumor rate (%) [22]: 75.69** %; Body weight (g) Post-dose [22]: 16.5 ± 0.4 g; Tumor weight [22]: 0.62 ± 0.19 g; Body weight (g) Pre-dose [22]: 22.3 ± 1.7 g
